Test results reported in patent US8372848B2, “Melanin-concentrating hormone receptor antagonists and methods of use” (Mixture Sciences, Inc., priority 2004, dated 2013).
Entries after “also recorded” stand apart in the source; their conditions may differ.

How the values were obtained:
[1] = molecular target: T1, neuropeptide Y2 (Homo sapiens, UniProt P49146); assay: Selectivity versus neuropeptide Y2; type: cell-based
T1 sequence (P49146 1-381): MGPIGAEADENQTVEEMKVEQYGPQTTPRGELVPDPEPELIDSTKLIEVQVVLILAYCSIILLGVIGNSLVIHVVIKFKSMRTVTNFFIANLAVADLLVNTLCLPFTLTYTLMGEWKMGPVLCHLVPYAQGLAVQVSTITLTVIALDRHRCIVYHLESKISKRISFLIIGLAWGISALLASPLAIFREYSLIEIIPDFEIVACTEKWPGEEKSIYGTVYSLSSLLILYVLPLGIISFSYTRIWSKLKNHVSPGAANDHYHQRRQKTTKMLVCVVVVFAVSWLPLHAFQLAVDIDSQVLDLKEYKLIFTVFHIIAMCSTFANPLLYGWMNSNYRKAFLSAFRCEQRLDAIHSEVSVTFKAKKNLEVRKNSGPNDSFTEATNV

[2] = molecular target: kappa opioid receptor (dynorphin) (Homo sapiens, UniProt P41145); assay: Selectivity versus kappa opioid receptor; type: cell-based
[3] = molecular target: T2, prolactin releasing peptide (PrRP) receptor (Homo sapiens, UniProt P49683); assay: Selectivity versus PrRP receptor; type: cell-based
T2 sequence (P49683 1-370): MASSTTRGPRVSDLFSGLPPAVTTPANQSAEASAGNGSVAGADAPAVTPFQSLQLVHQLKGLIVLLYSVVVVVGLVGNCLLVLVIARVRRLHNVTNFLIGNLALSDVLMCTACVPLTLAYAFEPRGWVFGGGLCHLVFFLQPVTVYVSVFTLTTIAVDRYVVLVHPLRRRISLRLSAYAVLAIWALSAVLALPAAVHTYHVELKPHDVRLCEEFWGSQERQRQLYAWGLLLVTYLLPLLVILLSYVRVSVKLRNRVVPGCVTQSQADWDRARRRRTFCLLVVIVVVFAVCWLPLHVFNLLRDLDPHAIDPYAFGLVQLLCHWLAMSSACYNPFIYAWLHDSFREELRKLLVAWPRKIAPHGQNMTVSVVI

[4] = test system: rats; assay: Conditioned place aversion (CPA), Example VII; type: in vivo, rat; settings: 10 nmole i.c.v. on conditioning days 2,3; test day 4; listed as TPI
Protocol: Rats were randomly divided into two (2) groups of eight (8) rats each (Groups I and II). Testing was performed in four identical place-conditioning chambers (43×43×30.5 cm) connected to a common interface and computer (MED Associates, Inc., St. Albans, Vt.). Test chambers had two equal compartments, each with unique sensory cues. One compartment had black and white striped walls, a stainless-steel wire mesh floor (0.16-cm wire with 1.27-cm openings), corncob bedding, and lemon-scented water applied to the walls immediately before each test. The other compartment had white walls with black dots, stainless-steel grid floor (0.48-cm rods placed 1.6 cm apart), wood-chip bedding, and banana-scented water applied to the walls. The two compartments were separated by a middle wall with a black guillotine door in the center. All rats were weighed and acclimated to the test room for 20 min each day before being placed into the apparatus.
The CPA test consisted of three phases. During the preconditioning phase (day 1), the animals were placed into the chamber for 15 min. During the conditioning phase (day 2,3), animals were injected i.c.v with either 0 (Group I—n=8) or 10 nmole (Group 2—n=8) of TPI and confined to one side for 20 min. […] The activity of the animals was monitored for 15 min.

[5] = test system: rats; assay: Spontaneous activity (ambulatory and non-ambulatory movements) after icv administration, Example IV; type: in vivo, rat
Protocol: To determine the effect of TPI 1361-17 on spontaneous activity on rats, intraventricular cannulated rats were acclimatized to the testing situation. […] Ambulatory movements and non-ambulatory movements were monitored for 60 minutes upon administration of five nmol TPI 1361-17 or ACSF (FIGS. 4A, 4B).
For these experiments, ambulatory movements were recorded using a Hamilton-Kinder Activity Monitor (with the infrared beams in a 4×8 configured frame). Locomotion was quantified in transparent polycarbonate cages (32×26×20 cm) placed within the activity frames. Animal position was detected by two dimensional beam breaks. The ambulation was tabulated as a movement that results in the change of location. All other beam breaks are categorized as non-ambulatory, fine movement. Animals were acclimatized to the novel home cage-environment for 60 minutes before injection, then were removed, injected and immediately replaced in the same cage, and monitoring began. Locomotion was measured for 60 minutes after the ICV administration of either ACSF or 5 nmol TPI 1361-17.
For animal studies, adult male Sprague-Dawley rats weighing 200-300g were obtained from Charles River Laboratories (Wilmington, Mass.), bearing a 23-gauge stainless steel cannula placed into the right lateral ventricle. […]

Sequence of kappa opioid receptor (dynorphin) (P41145 whole entry): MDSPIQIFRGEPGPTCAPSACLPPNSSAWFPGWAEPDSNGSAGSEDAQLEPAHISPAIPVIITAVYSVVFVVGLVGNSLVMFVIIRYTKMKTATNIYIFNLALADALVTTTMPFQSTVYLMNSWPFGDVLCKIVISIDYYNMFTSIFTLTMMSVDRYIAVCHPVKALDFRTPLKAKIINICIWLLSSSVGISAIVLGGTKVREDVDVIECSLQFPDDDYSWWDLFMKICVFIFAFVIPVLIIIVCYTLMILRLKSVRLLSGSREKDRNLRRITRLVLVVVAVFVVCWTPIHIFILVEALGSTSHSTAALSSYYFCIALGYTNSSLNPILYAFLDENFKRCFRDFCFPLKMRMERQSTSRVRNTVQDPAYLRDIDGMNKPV

Selectivity for MCH1R compared with neuropeptide Y2 [1]: more than 1,000 fold
Selectivity for MCH1R compared with kappa opioid receptor [2]: more than 1,000 fold
Selectivity for MCH1R compared with PrRP receptor [3]: more than 1,000 fold
Total amounts of non-ambulatory or ambulatory movements versus ACSF ([5]; 5 nmol icv, 60 minutes): no significant differences
SMILES: C[C@@H](CNCc1ccccc1)N1C[C@H](CCCNC(=N)N)N(CCc2cccc(F)c2)C1=S [TPI 1361-17, N-(3-{(4S)-1-[(1S)-2-(benzylamino)-1-methylethyl]-3-[2-(3-fluorophenyl)ethyl]-2-thioxoimidazolidin-4-yl}propyl)guanidine]
Conditioned place aversion [4]: did not cause conditioned place aversion; also recorded: lack of conditioned place aversion
Detectable changes in movement ([5]; five or one nmol icv): did not exhibit any detectable changes in movement; also recorded: did not affect locomotion or fine movements
